The values below come from patent US7566787B2, “Small molecule cyclin D1 ablative agents” (The Ohio State University, priority 2004, dated 2009).

Structures are written as SMILES. Read-outs that look alike come from different tables or passages of the source.

One experiment deals with T1, PPARγ (Homo sapiens, UniProt P37231).
T1 construct: endogenous in cells; host or cells: MCF-7 (nuclear extracts)
T1 sequence (P37231 1-505): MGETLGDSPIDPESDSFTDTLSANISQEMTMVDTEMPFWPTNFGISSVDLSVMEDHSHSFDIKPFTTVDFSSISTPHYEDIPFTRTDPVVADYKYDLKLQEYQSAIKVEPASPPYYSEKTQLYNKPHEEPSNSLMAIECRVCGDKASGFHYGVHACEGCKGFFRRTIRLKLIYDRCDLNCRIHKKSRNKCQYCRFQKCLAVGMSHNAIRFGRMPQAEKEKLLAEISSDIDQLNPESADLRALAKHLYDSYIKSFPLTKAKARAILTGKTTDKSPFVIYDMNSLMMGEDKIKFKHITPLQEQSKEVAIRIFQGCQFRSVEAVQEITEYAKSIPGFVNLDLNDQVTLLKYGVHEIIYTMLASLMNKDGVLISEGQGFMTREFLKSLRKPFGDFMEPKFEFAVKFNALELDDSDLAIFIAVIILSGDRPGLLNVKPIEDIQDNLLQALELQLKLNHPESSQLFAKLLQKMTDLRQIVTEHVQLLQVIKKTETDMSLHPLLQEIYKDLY
As to the kind of experiment: Analysis of PPARγ activation (PPARγ transcription factor ELISA, MCF-7 nuclear extracts). It is filed as cell-based. As to conditions: 10 μM, 48 h, MCF-7 cells. Here is the method:
Analysis of PPARγ activation. The analysis was carried out by using a PPARγ transcription factor ELISA kit (Active Motif, Carlsbad, Calif.), in which an oligonucleotide containing the peroxisome proliferator response element (PPRE) was immobilized onto a 96-well plate. PPARs contained in nuclear extracts bind specifically to this oligonucleotide and are detected through an antibody directed against PPARγ. In brief, MCF-7 cells were cultured in RPMI 1640 medium supplemented with 10% FBS, and treated with DMSO vehicle or individual test agents, 10 μM each, for 48 h. Cells were collected, and nuclear extracts were prepared with a Nuclear Extract kit (Active Motif, Carlsbad, Calif.). Nuclear extracts of the same protein concentration from individual treatments were subject to the PPARγ transcription factor ELISA according to the manufacturer's instruction.
On the technique in general: An ELISA detects its analyte on a solid surface through an enzyme-linked reagent.

For the next experiment, the system named is MCF-7 cells. As to the kind of experiment: MTT cell viability assay. It is filed as cell-based. As to conditions: Homo sapiens. The method, then: Cell viability analysis. The effect of individual test agents on cell viability was assessed by using the MTT [3-(4,5-dimethylthiazol-2-yl)-2,5-diphenyl-2H-tetrazolium bromide] assay in six replicates. Cells were seeded and incubated in 96-well, flat-bottomed plates in DMEM-F12 media with 10% FBS for 24 h, and were exposed to various concentrations of test agents dissolved in DMSO (final DMSO concentration, 0.1%) in 5% FBS-supplemented DMEM-F12 medium. Controls received DMSO vehicle at a concentration equal to that of drug-treated cells. The medium was removed, replaced by 200 μl of 0.5 mg/ml of MTT in 10% FBS-containing RPMI-1640 medium, and cells were incubated in the CO2 incubator at 37° C. for 2 h. Supernatants were removed from the wells, and the reduced MTT dye was solubilized in 200 μl/well DMSO. Absorbance at 570 nm was determined on a plate reader.
Background: Formazan colour is commonly taken as a measure of viable cells.

The next experiment has as its system cyclin D1. The experiment can be described thus: Western blot analysis of cyclin D1 expression in MCF-7 cells. As to conditions: for minimum concentration required for the complete ablation of cyclin D1: 24 h, 5% FBS; for concentration at which cyclin D1 levels are reduced: FIG. 8B. It is filed as cell-based, human. The method, then: (§1) Western Blot Analysis. MCF-7 or MDA-MB-231 cells were seeded in 10% FBS-containing DMEM-F-12 for 24 h and treated with various agents as indicated. After individual treatments for 24 h, both the incubation medium and adherent cells in T-25 or T-75 flasks were scraped and collected by centrifugation at 2,000×g for 10 min. The pellets were recovered, placed on ice, and triturated with 20 to 50 μl of a chilled lysis buffer (M-PER® Mammalian Protein Extraction Reagent, Pierce, Rockford, Ill.) to which was added 1% protease inhibitor cocktail (set III, EMD Biosciences, Inc. San Diego, Calif.). After a 30 min-incubation on ice, the mixture was centrifuge at 16,100×g for 3 min. Two μl of the suspension was taken for protein analysis using the Bradford assay kit (Bio-Rad, Hercules, Calif.). To the remaining solution was added the same volume of 2× SDS-PAGE sample loading buffer (100 mM Tris-HCl, pH 6.8, 4% SDS, 5% β-mercaptoethanol 20% glycerol, and 0.1% bromophenol blue). The mixture was boiled for 10 min. Equal amounts of proteins were loaded onto 10% SDS-PAGE gels. After electrophoresis, protein bands were transferred to nitrocellulose membranes in a semi-dry transfer cell. The transblotted membrane was blocking with TBST [Tris-buffered saline (TBS) containing 0.1% Tween 20] containing 5% nonfat milk for 90 min, and the membrane was incubated with the appropriate primary antibody in TBST-5% nonfat milk at 4° C. overnight. After washing three times with TBST for a total of 45 min, the transblotted membrane was incubated with goat anti-rabbit or anti-mouse IgG-horseradish peroxidase conjugates (diluted 1:1000) for 1 h at room temperature and washed four times with TBST for a total of 1 h. The immunoblots were visualized by enhanced chemiluminescence.
For orientation: Immunoblotting shows a protein as a band on a membrane.

The test system of a further experiment is ERα. The experiment can be described thus: Western blot analysis of ERα expression in MCF-7 cells. Type of experiment: cell-based, human. As to conditions: 24 h. Here is the method:
as §1, with “The transblotted membrane was blocking with TBST [Tris-buffered saline (TBS) containing 0.1% Tween 20] containing 5% nonfat milk for 90 min, and the membrane was incubated with the appropriate primary antibody in TBST-5% nonfat milk at 4° C. overnight. After washing three times with TBST for a total of 45 min, the transblotted membrane was incubated with goat anti-rabbit or anti-mouse IgG-horseradish peroxidase conjugates (diluted 1:1000) for 1 h at room temperature and washed four times with TBST for a total of 1 h. The immunoblots were visualized by enhanced chemiluminescence.” left out

The test system of another experiment is cyclin D1 gene mRNA. The experiment can be described thus: RT-PCR analysis of mRNA transcripts of cyclin D1 gene in MCF-7 cells. Type of experiment: cell-based, human. As to conditions: 24 h exposure, 40 μM TG, 30 μM Δ2-TG. The method, then: Reverse transcriptase (RT-) PCR analysis of mRNA transcripts of cyclin D1 gene. MCF7 cells were subject to total RNA isolation by using RNeasy mini kit (Qiagen, Valencia, Calif.). RNA concentrations and quality were assessed spectrophotometrically by measuring absorption at 260 nm. Aliquots of 20 μg of total RNA from each sample was reverse transcribed to cDNA using Omniscript RT Kit (Qiagen) according to manufacturer's instructions. The primers used were as follows: cyclin D1, forward, 5′-[…]-3′, reverse, 5′-[…]-3′; β-actin, forward, 5′-[…]-3′, reverse, 5′-[…]-3′. The reaction conditions were as follows: for cyclin D1 (a) initial denaturation at 95° C. for 5 min; (b) 34 cycles of amplification (95° C. for 1 min, 65° C. for 1 min 45 s, and 72° C. for 1 min); and (c) a final extension step of 10 min at 72° C.; for β-actin (a) initial denaturation at 95° C. for 3 min; (b) 40 cycles of amplification (95° C. for 30 s, 58° C. for 20 s, and 72° C. for 45 s); and (c) a final extension step of 10 min at 72° C.

Experiment [1] concerns cyclins D2, D3, A, B, and E, and cyclin-dependent kinases (CDKs) 2 and 4. As to the kind of experiment: Western blot of other cyclins and CDKs in MCF-7 cells. It is filed as cell-based, human. As to conditions: different doses, 24 h. The method, then: as §1, with “The transblotted membrane was blocking with TBST [Tris-buffered saline (TBS) containing 0.1% Tween 20] containing 5% nonfat milk for 90 min, and the membrane was incubated with the appropriate primary antibody in TBST-5% nonfat milk at 4° C. overnight. After washing three times with TBST for a total of 45 min, the transblotted membrane was incubated with goat anti-rabbit or anti-mouse IgG-horseradish peroxidase conjugates (diluted 1:1000) for 1 h at room temperature and washed four times with TBST for a total of 1 h. The immunoblots were visualized by enhanced chemiluminescence.” left out

For another experiment, the system named is GSK-3β. The experiment can be described thus: Western blot of GSK-3β phosphorylation in MCF-7 cells. Type of experiment: cell-based, human. As to conditions: different doses. The method, then: as §1, with “The transblotted membrane was blocking with TBST [Tris-buffered saline (TBS) containing 0.1% Tween 20] containing 5% nonfat milk for 90 min, and the membrane was incubated with the appropriate primary antibody in TBST-5% nonfat milk at 4° C. overnight. After washing three times with TBST for a total of 45 min, the transblotted membrane was incubated with goat anti-rabbit or anti-mouse IgG-horseradish peroxidase conjugates (diluted 1:1000) for 1 h at room temperature and washed four times with TBST for a total of 1 h. The immunoblots were visualized by enhanced chemiluminescence.” left out

The next experiment deals with ubiquitinated cyclin D1. As to the kind of experiment: Coimmunoprecipitation/Western blot of cyclin D1 ubiquitination in MCF-7 cells. Type of experiment: cell-based, human. As to conditions: 30 μM TG or 20 μM Δ2-TG, 20 h. The method, then: Coimmunoprecipitation/Western Blot. MCF-7 cells were cultured in 10% FBS-containing DMEM-F-12 in 75-mm plates for 24 h. Cell were treated with DMSO vehicle, 30 μM TG, or 20 μM Δ2-TG in 5% FBS-containing DMEM-F12 medium for another 20 hours. Cells were rinsed with PBS at room temperature, scraped off the flask, transferred into centrifuge tubes, and centrifuged at 2,000×g for 10 min to pellet the cells. […] These cell lysates were treated with 100 μl of protein A-agarose bead slurry, followed by brief centrifugation, to remove nonspecific binding proteins. Equal amounts of proteins from these lysates, as determined by the Bradford assay, were mixed with anti-cyclin D1 in an orbital shaker at 23° C. for 2 h, followed by 100 μl of protein A-agarose bead slurry at 4° C. for 12 h. The immunocomplex was collected by brief centrifugation, washed 4 times with 800 μl of ice-cold RIPA buffer, and suspended in 50 μl of the aforementioned 2× SDS sample loading buffer. The suspension was boiled for 10 min, cooled, and briefly centrifuged to remove the beads. Western blot analysis was performed with anti-cyclin D1 or anti-ubiquitin as described above.

The mark [2] stands for this setting: MCF7, cell viability data, read-out: IC50 for MTT.
Where [3] appears, read: MCF7, 24 h, 5% FBS, MTT, FIG. 8D, read-out: IC50 in inhibiting MCF-7 cell proliferation.

`CC1(COc2ccc(/C=C3\SC(=O)NC3=O)cc2)CCCCC1` [Δ2-CG, 5-[4-(1-methyl-cyclohexylmethoxy)-benzylidene]-thiazolidine-2,4-dione]: on PPARγ, the PPARγ activation entry is “inactive”. Further, the IC50 in the experiment on MCF-7 cells (setting [2]) came to 70 µM. Moreover, the “minimum concentration required for the complete ablation of cyclin D1” value in the experiment with cyclin D1 turned out to be 30 µM. Besides, in the experiment with ERα, the “effect on ERα expression” value is given as “able to reduce”.
With `C=CCOc1c(C)c(C)c2c(c1C)CCC(C)(COc1ccc(/C=C3\SC(=O)NC3=O)cc1)O2` (stereo not shown) [TG-6, 5-[4-(6-allyoxy-2,5,7,8-tetramethyl-chroman-2-yl-methoxy)-benzylidene]-2,4-thiazolidinedione], the PPARγ activation result at PPARγ is “devoid of activity”. In addition, the IC50 in the experiment with MCF-7 cells (setting [3]) turned out to be 8 µM; in the experiment on MCF-7 cells (setting [2]) it was 9 µM; in the experiment on cyclin D1 (western blot data, read-out: IC50 for WB), 3 µM. Also, the “potency in ablating cyclin D1 relative to Δ2-TG” value in the experiment on cyclin D1 was “an-order-of-magnitude higher”. Also, the “concentration at which cyclin D1 levels are reduced” value in the experiment with cyclin D1 is at least 2.5 µM.
For the molecule `Cc1c(C)c2c(c(C)c1O)CCC(C)(COc1ccc(/C=C3\SC(=O)NC3=O)cc1)O2` (stereo not shown) [Δ2-TG, 5-[4-(6-hydroxy-2,5,7,8-tetramethyl-chroman-2-yl-methoxy)-benzylidene]-2,4-thiazolidinedione], the PPARγ activation entry at PPARγ is “inactive”. The “mRNA level of cyclin D1” value with cyclin D1 gene mRNA is “remained unaltered”. In addition, in experiment [1], the “expression level of cyclin D2 and CDK4” value is recorded as “slight decrease”; the “expression level of the other cyclins and CDKs (D3, A, B, E, CDK2)” value is listed as “no appreciable effect”. Besides, the IC50 in the experiment with MCF-7 cells (setting [3]) amounted to 55 µM. Further, in the experiment on MCF-7 cells (setting [2]), the IC50 amounted to 57 µM. Moreover, the GSK-3β phosphorylation level entry in the experiment with GSK-3β is on record as “remained unaltered”. Further, the “time of complete ablation of cyclin D1” value in the experiment with cyclin D1 (40 μM TG, 30 μM Δ2-TG) is on record as 24 h. Moreover, in the experiment on cyclin D1, the “minimum concentration required for the complete ablation of cyclin D1” value was 30 µM and the “concentration at which cyclin D1 levels are reduced” value is at least 20 µM. In the experiment with ERα, the “effect on ERα expression” value was “able to reduce”. Moreover, the “extent of ubiquitination of cyclin D1” value in the experiment with ubiquitinated cyclin D1 is “increased”.
